According to ChEMBL document CHEMBL2396574, “Design, synthesis and evaluation of retinoids with novel bulky hydrophobic partial structures” (Bioorg Med Chem, 2013):
Calls of active or inactive are those of the source. The calls are words filed in the database; no cut-off is given here.

What was measured:
[1] = target: T1, Retinoic acid receptor RXR-gamma (Homo sapiens) (UniProt P48443); assay: Transactivation of full-length RXRgamma (unknown origin) expressed in African green monkey COS1 cells at 1000 nM by luciferase reporter gene assay; assay type: cell-based; details: COS-1
T1 sequence (whole entry): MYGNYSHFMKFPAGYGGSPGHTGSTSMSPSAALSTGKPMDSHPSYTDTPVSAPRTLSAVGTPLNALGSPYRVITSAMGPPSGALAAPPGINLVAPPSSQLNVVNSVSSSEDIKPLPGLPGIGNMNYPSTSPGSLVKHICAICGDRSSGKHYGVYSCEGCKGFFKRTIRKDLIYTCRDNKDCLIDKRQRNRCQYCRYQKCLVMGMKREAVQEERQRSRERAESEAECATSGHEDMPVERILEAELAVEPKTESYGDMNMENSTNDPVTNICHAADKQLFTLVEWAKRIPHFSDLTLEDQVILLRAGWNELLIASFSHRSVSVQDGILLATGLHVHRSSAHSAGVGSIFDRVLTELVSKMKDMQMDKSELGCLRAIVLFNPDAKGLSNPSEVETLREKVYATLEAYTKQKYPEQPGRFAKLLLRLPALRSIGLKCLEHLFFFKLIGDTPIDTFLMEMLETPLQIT

[2] = target: T2, Retinoic acid receptor RXR-beta (Homo sapiens) (UniProt P28702); assay: Transactivation of full-length RXRbeta (unknown origin) expressed in African green monkey COS1 cells at 1000 nM by luciferase reporter gene assay; assay type: cell-based; details: COS-1
T2 sequence (whole entry): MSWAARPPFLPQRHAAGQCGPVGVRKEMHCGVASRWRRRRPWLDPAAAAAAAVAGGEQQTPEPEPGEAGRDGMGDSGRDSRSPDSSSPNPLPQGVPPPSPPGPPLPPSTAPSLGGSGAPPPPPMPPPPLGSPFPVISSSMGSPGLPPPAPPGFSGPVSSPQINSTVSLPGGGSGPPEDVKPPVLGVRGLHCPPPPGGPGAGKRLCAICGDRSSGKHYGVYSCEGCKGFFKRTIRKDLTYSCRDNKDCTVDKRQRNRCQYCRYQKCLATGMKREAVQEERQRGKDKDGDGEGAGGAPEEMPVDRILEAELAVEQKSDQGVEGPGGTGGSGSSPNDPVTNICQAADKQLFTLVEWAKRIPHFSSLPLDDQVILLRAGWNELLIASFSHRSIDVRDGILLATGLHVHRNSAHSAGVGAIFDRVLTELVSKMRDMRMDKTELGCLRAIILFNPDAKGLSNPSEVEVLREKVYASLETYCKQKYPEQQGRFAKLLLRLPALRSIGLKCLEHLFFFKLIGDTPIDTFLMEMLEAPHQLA

[3] = target: T3, Retinoic acid receptor gamma (Homo sapiens) (UniProt P13631); assay: Transactivation of Gal4-fused RARgamma (unknown origin) expressed in African green monkey COS1 cells at 100 nM by luciferase reporter gene assay relative to DMSO-treated control; assay type: cell-based; details: COS-1
T3 sequence (whole entry): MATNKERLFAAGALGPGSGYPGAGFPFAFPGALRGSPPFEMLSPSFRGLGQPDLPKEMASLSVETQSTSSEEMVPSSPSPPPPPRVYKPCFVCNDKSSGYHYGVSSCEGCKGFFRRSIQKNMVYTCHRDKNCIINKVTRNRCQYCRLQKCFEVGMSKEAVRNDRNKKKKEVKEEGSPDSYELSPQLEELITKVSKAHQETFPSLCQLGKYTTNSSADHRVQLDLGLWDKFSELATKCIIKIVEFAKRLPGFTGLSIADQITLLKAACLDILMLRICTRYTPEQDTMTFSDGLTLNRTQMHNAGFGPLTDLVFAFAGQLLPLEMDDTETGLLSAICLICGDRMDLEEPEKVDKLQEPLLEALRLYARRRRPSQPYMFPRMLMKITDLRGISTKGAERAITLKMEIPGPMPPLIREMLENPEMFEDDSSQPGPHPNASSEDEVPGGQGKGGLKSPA

HL-60 [4] = assay: Induction of human HL60 cell differentiation into myeloid cells at 100 nM after 4 days by NBT reduction assay relative to control; assay type: functional
HL-60 [5] = assay: Induction of human HL60 cell differentiation into myeloid cells at 10 nM after 4 days by NBT reduction assay relative to control; assay type: functional
[6] = target: T4, Retinoic acid receptor beta (Homo sapiens) (UniProt P10826); assay: Transactivation of Gal4-fused RARbeta (unknown origin) expressed in African green monkey COS1 cells at 100 nM by luciferase reporter gene assay relative to DMSO-treated control; assay type: cell-based; details: COS-1
T4 sequence (whole entry): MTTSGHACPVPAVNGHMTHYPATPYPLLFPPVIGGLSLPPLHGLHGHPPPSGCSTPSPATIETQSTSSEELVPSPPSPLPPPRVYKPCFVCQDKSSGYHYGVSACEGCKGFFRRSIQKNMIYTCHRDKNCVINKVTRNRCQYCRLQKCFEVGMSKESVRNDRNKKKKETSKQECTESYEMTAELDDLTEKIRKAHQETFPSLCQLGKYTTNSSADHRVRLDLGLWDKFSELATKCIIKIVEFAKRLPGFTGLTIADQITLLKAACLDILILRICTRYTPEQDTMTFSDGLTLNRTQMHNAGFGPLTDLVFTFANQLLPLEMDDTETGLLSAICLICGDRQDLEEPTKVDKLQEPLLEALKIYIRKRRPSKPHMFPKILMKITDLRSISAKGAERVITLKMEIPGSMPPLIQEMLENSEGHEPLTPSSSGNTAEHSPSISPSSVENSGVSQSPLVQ

Row | Activity [1] | Activity [2] | fold change (FC) [3] | fold change (FC) [6] | Compound | Activity (HL-60 [4]) [%] | Activity (HL-60 [5]) [%]
1 | inactive | inactive | 1 |  | O=C(Nc1ccc(C(=O)O)nc1)c1cc2c3c(c1)CCCC3CCC2 |  | 
2 | inactive | inactive | 2 | 13 | O=C(Nc1ccc(C(=O)O)c(Cl)c1)c1cc2c3c(c1)CCCCC3CCCC2 | 35 | 18
3 | inactive | inactive | 1 | 8 | O=C(O)c1ccc(C(=O)Nc2cc3cc(c2)CCCCCCCCCC3)cc1 | 37 | 16
4 | inactive | inactive | 10 | 27 | O=C(O)c1ccc(NC(=O)c2cc3c4c(c2)CCCCC4CCCC3)cc1 | 40 | 34
5 | inactive | inactive | 7 | 16 | O=C(O)c1ccc(C(=O)Nc2cc3c4c(c2)CCCC4CCC3)nc1 | 5 | 2
6 | inactive | inactive | 1 | 6 | O=C(Nc1ccc(C(=O)O)c(Cl)c1)c1cc2c3c(c1)CCCC3CCC2 | 37 | 16
7 | inactive | inactive |  |  | CC1=C(/C=C/C(C)=C/C=C/C(C)=C/C(=O)O)C(C)(C)CCC1 [TRETINOIN] | 71 | 46
8 | inactive | inactive | 1 | 13 | O=C(O)c1ccc(NC(=O)c2cc3cc(c2)CCCCCCCCCC3)cc1 | 38 | 30
9 | inactive | inactive | 1 | 12 | CC12CCCc3cc(NC(=O)c4ccc(C(=O)O)cc4)cc(c31)CCC2 |  | 12
10 | inactive | inactive | 1 |  | CC12CCCc3cc(C(=O)Nc4ccc(C(=O)O)nc4)cc(c31)CCC2 |  | 
11 | inactive | inactive | 2 | 7 | O=C(Nc1ccc(C(=O)O)c(F)c1)c1cc2c3c(c1)CCCC3CCC2 | 60 | 49
12 | inactive | inactive | 1 |  | O=C(Nc1cc2c3c(c1)CCCC3CCC2)c1ccc(C(=O)O)nc1 |  | 
13 | inactive | inactive | 1 | 13 | O=C(O)c1ccc(C(=O)Nc2cc3c4c(c2)CCCCC4CCCC3)cc1 | 53 | 13
14 | inactive | inactive | 1 | 8 | CC12CCCc3cc(C(=O)Nc4ccc(C(=O)O)c(Cl)c4)cc(c31)CCC2 | 21 | 19
15 | inactive | inactive | 3 | 18 | O=C(O)c1ccc(NC(=O)c2cc3c4c(c2)CCCC4CCC3)cc1 | 38 | 27
16 | inactive | inactive | 2 | 11 | O=C(Nc1ccc(C(=O)O)c(O)c1)c1cc2c3c(c1)CCCCC3CCCC2 | 41 | 29
17 | inactive | inactive | 1 |  | O=C(O)c1ccc(C(=O)Nc2cc3c4c(c2)CCCC4CCC3)s1 |  | 
18 | inactive | inactive | 1 | 5 | O=C(O)c1ccc(C(=O)Nc2cc3c4c(c2)CCCC4CCC3)cc1 | 18 | 7
19 | inactive | inactive |  |  | CC1(C)CCC(C)(C)c2cc(NC(=O)c3ccc(C(=O)O)cc3)ccc21 [TAMIBAROTENE] | 68 | 60
20 | inactive | inactive | 1 |  | CC12CCCc3cc(NC(=O)c4ccc(C(=O)O)nc4)cc(c31)CCC2 |  | 
21 | inactive | inactive | 2 | 13 | CC12CCCc3cc(C(=O)Nc4ccc(C(=O)O)c(F)c4)cc(c31)CCC2 | 29 | 18
22 | inactive | inactive | 56 | 45 | O=C(O)c1ccc(NC(=O)c2cc3c4c(c2)CCCCC4CCCC3)nc1 |  | 
23 | inactive | inactive | 1 |  | O=C(Nc1ccc(C(=O)O)s1)c1cc2c3c(c1)CCCC3CCC2 |  | 
24 | inactive | inactive | 1 | 2 | COc1cc(NC(=O)c2cc3c4c(c2)CCCC4CCC3)ccc1C(=O)O | 10 | 7
25 | inactive | inactive | 2 | 26 | CC12CCCc3cc(NC(=O)c4ccc(C(=O)O)cn4)cc(c31)CCC2 | 16 | 5
26 | inactive | inactive | 2 | 1 | COc1cc(NC(=O)c2cc3c4c(c2)CCCCC4CCCC3)ccc1C(=O)O |  | 
27 | inactive | inactive | 1 | 1 | CC12CCCc3cc(C(=O)Nc4ccc(C(=O)O)s4)cc(c31)CCC2 |  | 
28 | inactive | inactive | 4 | 20 | CC12CCCc3cc(C(=O)Nc4ccc(C(=O)O)cc4)cc(c31)CCC2 |  | 36
29 | inactive | inactive | 1 |  | CC12CCCc3cc(NC(=O)c4ccc(C(=O)O)s4)cc(c31)CCC2 |  | 
30 | inactive | inactive | 2 | 17 | O=C(O)c1ccc(C(=O)Nc2cc3c4c(c2)CCCCC4CCCC3)nc1 |  | 
